Assays:
[1] = target: T1, acyl-coenzyme A:cholesterol acyltransferase 1 (ACAT1) (Homo sapiens, UniProt P35610); assay: [3H]oleate incorporation into cholesteryl oleate in CHO-ACAT1 cells; type: cell-based
T1 sequence (P35610 1-550): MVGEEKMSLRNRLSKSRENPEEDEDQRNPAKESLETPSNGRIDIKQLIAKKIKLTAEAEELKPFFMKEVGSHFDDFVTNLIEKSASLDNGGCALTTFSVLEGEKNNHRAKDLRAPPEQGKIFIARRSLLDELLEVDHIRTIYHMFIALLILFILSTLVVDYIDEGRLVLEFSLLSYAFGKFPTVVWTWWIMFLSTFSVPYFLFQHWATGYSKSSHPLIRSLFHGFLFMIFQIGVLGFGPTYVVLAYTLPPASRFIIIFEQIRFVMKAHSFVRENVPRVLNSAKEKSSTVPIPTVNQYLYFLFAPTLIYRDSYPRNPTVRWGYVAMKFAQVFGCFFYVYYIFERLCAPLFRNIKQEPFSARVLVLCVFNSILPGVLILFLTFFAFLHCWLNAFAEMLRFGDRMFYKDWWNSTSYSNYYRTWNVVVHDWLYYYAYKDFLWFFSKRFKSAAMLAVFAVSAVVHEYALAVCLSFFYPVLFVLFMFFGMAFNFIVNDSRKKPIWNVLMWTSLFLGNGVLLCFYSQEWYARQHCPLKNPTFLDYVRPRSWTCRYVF

[2] = target: T2, acyl-coenzyme A:cholesterol acyltransferase 2 (ACAT2) (Homo sapiens, UniProt O75908); assay: [3H]oleate incorporation into cholesteryl oleate in CHO-ACAT2 cells; type: cell-based
T2 sequence (O75908 1-522): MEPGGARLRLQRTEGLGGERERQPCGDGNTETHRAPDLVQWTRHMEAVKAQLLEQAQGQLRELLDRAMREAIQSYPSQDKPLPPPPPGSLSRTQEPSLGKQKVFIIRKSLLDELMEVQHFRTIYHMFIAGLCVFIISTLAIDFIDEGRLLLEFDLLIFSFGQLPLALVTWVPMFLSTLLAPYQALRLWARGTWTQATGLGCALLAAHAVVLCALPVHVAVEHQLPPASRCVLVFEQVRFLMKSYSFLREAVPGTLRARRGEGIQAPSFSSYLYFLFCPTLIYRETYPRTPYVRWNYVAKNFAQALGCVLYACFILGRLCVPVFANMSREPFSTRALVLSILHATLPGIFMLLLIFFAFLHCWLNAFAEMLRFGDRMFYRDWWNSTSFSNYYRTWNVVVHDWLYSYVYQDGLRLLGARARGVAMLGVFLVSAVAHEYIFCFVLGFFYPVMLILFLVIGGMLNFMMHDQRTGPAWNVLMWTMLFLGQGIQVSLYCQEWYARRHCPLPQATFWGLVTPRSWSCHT

IC50 [1]: 1500 ± 1200 nM | IC50 [2]: 2200 ± 1100 nM
SMILES: Cc1c(C(=O)NN2CCCCC2)nn(-c2ccc(Cl)cc2Cl)c1-c1ccc(Cl)cc1 [Rimonabant]

Reference: PMC2918681 (Biochemical and biophysical research communications, 2010)
